Experimental data taken from PubChem BioAssay AID1918991 (Molecular Pharmacology Branch, DTP, NCI, 2023).
Values belong to the molecule of their own block, whether it stands above or below them.

Test system: 186277-243-T-J2-PDC complex spheroid growth
Test: Anticancer human tumor 186277-243-T-J2-PDC patient-derived colon adenocarcinoma cell line growth inhibition [AhR]
Details: for IC50: curve of first compound; for viability, T/C: stronger effect = lower value
Procedure, shortened: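 Agents were dosed in half-log steps down from roughly clinical Cmax, or from 10 microM where Cmax was unknown, alone and with AhR antagonists. Read-out: percent test/control growth of tumor spheroids containing HUVEC and MSC stromal cells.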

[1] = second compound 0.1 µM, first compound 0.000949 µM
[2] = second compound 0.1 µM, first compound 0.003 µM
[3] = second compound 0.1 µM, first compound 0.00949 µM
[4] = second compound 0.1 µM, first compound 0.03 µM
[5] = second compound 0.1 µM, first compound 0.0949 µM
[6] = second compound 0.1 µM, first compound 0.3 µM
[7] = second compound 0.316 µM, first compound 0.000949 µM
[8] = second compound 0.316 µM, first compound 0.003 µM
[9] = second compound 0.316 µM, first compound 0.00949 µM
[10] = second compound 0.316 µM, first compound 0.03 µM
[11] = second compound 0.316 µM, first compound 0.0949 µM
[12] = second compound 0.316 µM, first compound 0.3 µM
[13] = second compound 1 µM, first compound 0.000949 µM
[14] = second compound 1 µM, first compound 0.003 µM
[15] = second compound 1 µM, first compound 0.00949 µM
[16] = second compound 1 µM, first compound 0.03 µM
[17] = second compound 1 µM, first compound 0.0949 µM
[18] = second compound 1 µM, first compound 0.3 µM
[19] = second compound 3.16 µM, first compound 0.000949 µM
[20] = second compound 3.16 µM, first compound 0.003 µM
[21] = second compound 3.16 µM, first compound 0.00949 µM
[22] = second compound 3.16 µM, first compound 0.03 µM
[23] = second compound 3.16 µM, first compound 0.0949 µM
[24] = second compound 3.16 µM, first compound 0.3 µM
[25] = second compound 10 µM, first compound 0.000949 µM
[26] = second compound 10 µM, first compound 0.003 µM
[27] = second compound 10 µM, first compound 0.00949 µM
[28] = second compound 10 µM, first compound 0.03 µM
[29] = second compound 10 µM, first compound 0.0949 µM
[30] = second compound 10 µM, first compound 0.3 µM
[31] = second compound 0.1 µM, first compound 0.0316 µM
[32] = second compound 0.1 µM, first compound 0.1 µM
[33] = second compound 0.1 µM, first compound 0.316 µM
[34] = second compound 0.1 µM, first compound 1 µM
[35] = second compound 0.1 µM, first compound 3.16 µM
[36] = second compound 0.1 µM, first compound 10 µM
[37] = second compound 0.316 µM, first compound 0.0316 µM
[38] = second compound 0.316 µM, first compound 0.1 µM
[39] = second compound 0.316 µM, first compound 0.316 µM
[40] = second compound 0.316 µM, first compound 1 µM
[41] = second compound 0.316 µM, first compound 3.16 µM
[42] = second compound 0.316 µM, first compound 10 µM
[43] = second compound 1 µM, first compound 0.0316 µM
[44] = second compound 1 µM, first compound 0.1 µM
[45] = second compound 1 µM, first compound 0.316 µM
[46] = second compound 1 µM, first compound 1 µM
[47] = second compound 1 µM, first compound 3.16 µM
[48] = second compound 1 µM, first compound 10 µM
[49] = second compound 3.16 µM, first compound 0.0316 µM
[50] = second compound 3.16 µM, first compound 0.1 µM
[51] = second compound 3.16 µM, first compound 0.316 µM
[52] = second compound 3.16 µM, first compound 1 µM
[53] = second compound 3.16 µM, first compound 3.16 µM
[54] = second compound 3.16 µM, first compound 10 µM
[55] = second compound 10 µM, first compound 0.0316 µM
[56] = second compound 10 µM, first compound 0.1 µM
[57] = second compound 10 µM, first compound 0.316 µM
[58] = second compound 10 µM, first compound 1 µM
[59] = second compound 10 µM, first compound 3.16 µM
[60] = second compound 10 µM, first compound 10 µM
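Also: spheroids exposed to compounds for seven days before the viability read.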
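For viability, T/C in this document: luminescent signal used as a stand-in for viable cell amount; 100% = DMSO vehicle control wells.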

IC50 (second compound 0.1 µM): 0.074 µM
IC50 (second compound 0.316 µM): 0.0663 µM
IC50 (second compound 1 µM): 0.0666 µM
IC50 (second compound 3.16 µM): 0.0606 µM
IC50 (second compound 10 µM): 0.0614 µM
Structure (SMILES): CCc1c2c(nc3ccc(O)cc13)-c1cc3c(c(=O)n1C2)COC(=O)[C@]3(O)CC + Cc1ccccc1N=Nc1ccc(NC(=O)c2ccnn2C)c(C)c1
viability, T/C [1]: 119%
viability, T/C [2]: 143%
viability, T/C [3]: 114%
viability, T/C [4]: 81.7%
viability, T/C [5]: 42.6%
viability, T/C [6]: 25.4%
viability, T/C [7]: 114%
viability, T/C [8]: 145%
viability, T/C [9]: 123%
viability, T/C [10]: 78%
viability, T/C [11]: 40.5%
viability, T/C [12]: 27%
viability, T/C [13]: 128%
viability, T/C [14]: 157%
viability, T/C [15]: 123%
viability, T/C [16]: 80.5%
viability, T/C [17]: 37.9%
viability, T/C [18]: 24.2%
viability, T/C [19]: 125%
viability, T/C [20]: 138%
viability, T/C [21]: 119%
viability, T/C [22]: 77%
viability, T/C [23]: 33.6%
viability, T/C [24]: 21.1%
viability, T/C [25]: 106%
viability, T/C [26]: 114%
viability, T/C [27]: 106%
viability, T/C [28]: 76.6%
viability, T/C [29]: 34.2%
viability, T/C [30]: 21.9%

IC50 (second compound 0.1 µM): > 10 µM
IC50 (second compound 0.316 µM): > 10 µM
IC50 (second compound 1 µM): > 10 µM
IC50 (second compound 3.16 µM): > 10 µM
IC50 (second compound 10 µM): > 10 µM
Structure (SMILES): COc1cc(Nc2ncc3c(n2)-c2ccc(Cl)cc2C(c2c(F)cccc2OC)=NC3)ccc1C(=O)O + Cc1ccccc1N=Nc1ccc(NC(=O)c2ccnn2C)c(C)c1
viability, T/C [31]: 132%
viability, T/C [32]: 125%
viability, T/C [33]: 117%
viability, T/C [34]: 107%
viability, T/C [35]: 115%
viability, T/C [36]: 120%
viability, T/C [37]: 134%
viability, T/C [38]: 119%
viability, T/C [39]: 114%
viability, T/C [40]: 108%
viability, T/C [41]: 101%
viability, T/C [42]: 117%
viability, T/C [43]: 130%
viability, T/C [44]: 123%
viability, T/C [45]: 114%
viability, T/C [46]: 107%
viability, T/C [47]: 107%
viability, T/C [48]: 117%
viability, T/C [49]: 133%
viability, T/C [50]: 118%
viability, T/C [51]: 110%
viability, T/C [52]: 103%
viability, T/C [53]: 106%
viability, T/C [54]: 114%
viability, T/C [55]: 108%
viability, T/C [56]: 104%
viability, T/C [57]: 105%
viability, T/C [58]: 96.5%
viability, T/C [59]: 93.3%
viability, T/C [60]: 102%

IC50 (second compound 0.1 µM): 5.86 µM
IC50 (second compound 0.316 µM): 5.37 µM
IC50 (second compound 1 µM): 5.56 µM
IC50 (second compound 3.16 µM): 5.1 µM
IC50 (second compound 10 µM): 4.12 µM
Structure (SMILES): Nc1ccccc1NC(=O)c1ccc(CNC(=O)OCc2cccnc2)cc1 + Cc1ccccc1N=Nc1ccc(NC(=O)c2ccnn2C)c(C)c1
viability, T/C [31]: 97.5%
viability, T/C [32]: 90%
viability, T/C [33]: 95.1%
viability, T/C [34]: 105%
viability, T/C [35]: 88.3%
viability, T/C [36]: 16.5%
viability, T/C [37]: 106%
viability, T/C [38]: 95.9%
viability, T/C [39]: 96.7%
viability, T/C [40]: 94.4%
viability, T/C [41]: 79%
viability, T/C [42]: 16.2%
viability, T/C [43]: 102%
viability, T/C [44]: 96.7%
viability, T/C [45]: 108%
viability, T/C [46]: 91.4%
viability, T/C [47]: 85.4%
viability, T/C [48]: 15%
viability, T/C [49]: 93.9%
viability, T/C [50]: 97.7%
viability, T/C [51]: 84.8%
viability, T/C [52]: 96.8%
viability, T/C [53]: 75.9%
viability, T/C [54]: 13.2%
viability, T/C [55]: 82.8%
viability, T/C [56]: 94.2%
viability, T/C [57]: 96.5%
viability, T/C [58]: 97.4%
viability, T/C [59]: 61.2%
viability, T/C [60]: 12.6%

The next lines start with the molecule.

Structure (SMILES): CC(C)CC(NC(=O)C(Cc1ccccc1)NC(=O)c1cnccn1)B(O)O (stereo not given) + Cc1ccccc1N=Nc1ccc(NC(=O)c2ccnn2C)c(C)c1
IC50 (second compound 0.1 µM): 0.0177 µM
IC50 (second compound 0.316 µM): 0.0168 µM
IC50 (second compound 1 µM): 0.0162 µM
IC50 (second compound 3.16 µM): 0.0159 µM
IC50 (second compound 10 µM): 0.0167 µM
viability, T/C [1]: 101%
viability, T/C [2]: 108%
viability, T/C [3]: 109%
viability, T/C [4]: 2.71%
viability, T/C [5]: 1.36%
viability, T/C [6]: 0.12%
viability, T/C [7]: 104%
viability, T/C [8]: 118%
viability, T/C [9]: 97.3%
viability, T/C [10]: 1.86%
viability, T/C [11]: 0.39%
viability, T/C [12]: 0.12%
viability, T/C [13]: 99.8%
viability, T/C [14]: 98.2%
viability, T/C [15]: 91.5%
viability, T/C [16]: 1.95%
viability, T/C [17]: 1.08%
viability, T/C [18]: 0.12%
viability, T/C [19]: 104%
viability, T/C [20]: 95.4%
viability, T/C [21]: 89.1%
viability, T/C [22]: 1.92%
viability, T/C [23]: 0.77%
viability, T/C [24]: 0.14%
viability, T/C [25]: 96%
viability, T/C [26]: 90.1%
viability, T/C [27]: 98.6%
viability, T/C [28]: 3.12%
viability, T/C [29]: 0.43%
viability, T/C [30]: 0.21%

Structure (SMILES): O=C(C=Cc1cccc(S(=O)(=O)Nc2ccccc2)c1)NO + Cc1ccccc1N=Nc1ccc(NC(=O)c2ccnn2C)c(C)c1
IC50 (second compound 0.1 µM): 2.02 µM
IC50 (second compound 0.316 µM): 1.74 µM
IC50 (second compound 1 µM): 1.9 µM
IC50 (second compound 3.16 µM): 1.66 µM
IC50 (second compound 10 µM): 1.47 µM
viability, T/C [31]: 114%
viability, T/C [32]: 104%
viability, T/C [33]: 96.2%
viability, T/C [34]: 88.8%
viability, T/C [35]: 25.4%
viability, T/C [36]: 4.8%
viability, T/C [37]: 96.7%
viability, T/C [38]: 114%
viability, T/C [39]: 101%
viability, T/C [40]: 74.7%
viability, T/C [41]: 23.2%
viability, T/C [42]: 4.82%
viability, T/C [43]: 104%
viability, T/C [44]: 100%
viability, T/C [45]: 108%
viability, T/C [46]: 84.7%
viability, T/C [47]: 22.3%
viability, T/C [48]: 4.07%
viability, T/C [49]: 91.5%
viability, T/C [50]: 114%
viability, T/C [51]: 112%
viability, T/C [52]: 74.5%
viability, T/C [53]: 18.4%
viability, T/C [54]: 3%
viability, T/C [55]: 89.8%
viability, T/C [56]: 97.8%
viability, T/C [57]: 96.5%
viability, T/C [58]: 65%
viability, T/C [59]: 18.8%
viability, T/C [60]: 3.18%

Structure (SMILES): O=C(c1cc(Cc2n[nH]c(=O)c3ccccc23)ccc1F)N1CCN(C(=O)C2CC2)CC1 + Cc1ccccc1N=Nc1ccc(NC(=O)c2ccnn2C)c(C)c1
IC50 (second compound 0.1 µM): > 10 µM
IC50 (second compound 0.316 µM): > 10 µM
IC50 (second compound 1 µM): > 10 µM
IC50 (second compound 3.16 µM): > 10 µM
IC50 (second compound 10 µM): > 10 µM
viability, T/C [31]: 102%
viability, T/C [32]: 95.4%
viability, T/C [33]: 95.5%
viability, T/C [34]: 101%
viability, T/C [35]: 99.2%
viability, T/C [36]: 123%
viability, T/C [37]: 94%
viability, T/C [38]: 111%
viability, T/C [39]: 97.5%
viability, T/C [40]: 101%
viability, T/C [41]: 100%
viability, T/C [42]: 127%
viability, T/C [43]: 105%
viability, T/C [44]: 87.3%
viability, T/C [45]: 110%
viability, T/C [46]: 95.1%
viability, T/C [47]: 113%
viability, T/C [48]: 127%
viability, T/C [49]: 109%
viability, T/C [50]: 96.5%
viability, T/C [51]: 104%
viability, T/C [52]: 101%
viability, T/C [53]: 106%
viability, T/C [54]: 111%
viability, T/C [55]: 85.6%
viability, T/C [56]: 86.1%
viability, T/C [57]: 101%
viability, T/C [58]: 93.3%
viability, T/C [59]: 93.6%
viability, T/C [60]: 91.6%
